Measurements: patent publication US20220274997A1, “PIM KINASE INHIBITOR COMPOSITIONS AND USES THEREOF” (Snap Bio, Inc., priority 2019, published 2022)
Several values for one entry are separate records, joined by “and”; a condition that tells them apart may be missing. Identical values can stand only once.

Key:
PIM1 = target: T1, PIM1 (Homo sapiens, UniProt P11309); assay: Biochemical radiolabeled ATP kinase assay (Reaction Biology), PIM1; details: 10 μM ATP
T1 construct: purchased ProQinase, Freiburg, Germany 0186-0000-1
T1 sequence (P11309 whole entry): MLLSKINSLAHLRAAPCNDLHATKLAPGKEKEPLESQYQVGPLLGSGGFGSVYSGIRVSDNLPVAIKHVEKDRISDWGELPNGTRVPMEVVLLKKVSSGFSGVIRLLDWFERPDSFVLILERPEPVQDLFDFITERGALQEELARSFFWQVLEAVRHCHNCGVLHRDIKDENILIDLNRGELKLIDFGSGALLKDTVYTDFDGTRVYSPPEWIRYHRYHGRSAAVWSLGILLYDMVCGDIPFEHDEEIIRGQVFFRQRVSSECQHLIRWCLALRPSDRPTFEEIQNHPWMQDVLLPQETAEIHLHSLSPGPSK
Text: The second assay used was Perkin Elmer's LANCE® Ultra kinase assay which uses a ULight™-labeled peptide substrate and an appropriate Europium-labeled anti-phospho antibody. When the substrate becomes phosphorylated by a kinase of interest, the phosphorylated site on the substrate is recognized by the Europium-labeled anti-phospho antibody. […] The intensity of light emission is proportional to the level of ULight peptide phosphorylation. A kinase inhibitor reduces the FRET signal, thus providing an accurate and sensitive measure of inhibition potency. […]
(§1) The standard protocol used for PIM3 was performed by Reaction Biology Corporation (Malvern, Pa.) using a capture assay performed in 20 mM HEPES at pH 7.5 containing 10 mM MgCl2, 10 mM MnCl2, 1 mM EGTA, 0.02% Brij35, 0.02 mg/mL BSA, 0.1 mM Na3VO4, 2 mM DTT, 0.02% Brij35, 10 μM ATP, and 20 μM peptide substrate […]. […] The bound ^33P-peptide substrate was quantified by scintillation counting and the disintegrations per minute (dpm) obtained, being directly proportional to the amount of ^33P-peptide produced by PIM3, were used to determine the IC50 for each compound. […]
(§2) The inhibitory activity of each compound against PIM kinases was measured with the radioisotope filter binding assay, a type of substrate phosphorylation assays, available at Reaction Biology Corporation (Mavern, Pa.).

PIM2 = target: T2, PIM2 (Homo sapiens, UniProt Q9P1W9); assay: Biochemical radiolabeled ATP kinase assay (Reaction Biology), PIM2; details: 10 μM ATP
T2 construct: purchased ProQinase, Freiburg, Germany 0223-0000-1
T2 sequence (Q9P1W9 whole entry): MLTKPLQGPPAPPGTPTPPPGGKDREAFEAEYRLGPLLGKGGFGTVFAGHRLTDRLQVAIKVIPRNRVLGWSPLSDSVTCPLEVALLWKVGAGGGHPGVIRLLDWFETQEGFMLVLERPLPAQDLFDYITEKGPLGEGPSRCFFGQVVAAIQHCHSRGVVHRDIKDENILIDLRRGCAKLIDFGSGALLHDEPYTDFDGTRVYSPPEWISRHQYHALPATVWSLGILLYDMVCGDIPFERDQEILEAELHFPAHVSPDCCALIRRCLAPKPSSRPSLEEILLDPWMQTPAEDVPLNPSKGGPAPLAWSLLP
Text: Two different assays for measuring kinase inhibitor activity were employed for messing the effectiveness of compounds of the present disclosure for inhibiting PIM kinases. […] The second assay used was Perkin Elmer's LANCE® Ultra kinase assay which uses a ULight™-labeled peptide substrate and an appropriate Europium-labeled anti-phospho antibody. When the substrate becomes phosphorylated by a kinase of interest, the phosphorylated site on the substrate is recognized by the Europium-labeled anti-phospho antibody. […]
as §1
The inhibitory activity of each compound against PIM kinases was measured with the radioisotope filter binding assay, a type of substrate phosphorylation assays, available at Reaction Biology Corporation (Mavern, Pa.). […]

PIM3 [1] = target: T3, PIM3 (Homo sapiens, UniProt Q86V86); assay: Biochemical radiolabeled ATP kinase assay (Reaction Biology), PIM3; details: for IC50: 10 μM ATP
T3 construct: purchased SignalChem, Richmond, Canada P37-10BG
Text: (§3) The second assay used was Perkin Elmer's LANCE® Ultra kinase assay which uses a ULight™-labeled peptide substrate and an appropriate Europium-labeled anti-phospho antibody. When the substrate becomes phosphorylated by a kinase of interest, the phosphorylated site on the substrate is recognized by the Europium-labeled anti-phospho antibody. […] The intensity of light emission is proportional to the level of ULight peptide phosphorylation. A kinase inhibitor reduces the FRET signal, thus providing an accurate and sensitive measure of inhibition potency.
The basic biochemical assay employs radiolabeled ATP to measure the kinase-catalyzed transfer of radioactive phosphorus to a tyrosine-containing peptide substrate, according to the general equation: […]
Reaction: Substrate+[γ-^33P]−ATP→^33P-Substrate+ADP
The standard protocol used for PIM3 was performed by Reaction Biology Corporation (Malvern, Pa.) using a capture assay performed in 20 mM HEPES at pH 7.5 containing 10 mM MgCl2, 10 mM MnCl2, 1 mM EGTA, 0.02% Brij35, 0.02 mg/mL BSA, 0.1 mM Na3VO4, 2 mM DTT, 0.02% Brij35, 10 μM ATP, and 20 μM peptide substrate […]. […] Reagents were combined and incubation at 30° C. for 30 min, the reaction was initiated by adding [γ-^33P]-ATP (10 ρCi/mL [γ-^33P]-ATP) and incubated for 2 h at 30° C. The reaction was then terminated by the addition of one-third volume of stop reagent (0.25 mM EDTA and 33 mM ATP in dH20). A […] aliquot was removed, spotted onto a P-81 filternat ion exchange paper and washed sequentially with 10% (w/v) chloroacetic acid and dH20 to remove ATP. The bound ^33P-peptide substrate was quantified by scintillation counting and the disintegrations per minute (dpm) obtained, being directly proportional to the amount of ^33P-peptide produced by PIM3, were used to determine the IC50 for each compound. […]
as §2

PIM3 [2] = target: T3, PIM3; assay: LANCE Ultra kinase assay, PIM3; format: biochemical; details: LANCE assay
Text: as §3
The assay was performed in 384-well plates in two steps: PIM kinases were mixed with the ULight-substrate (CREBtide) in buffer and incubated for 10 min. Subsequently, ATP and molecules of the present disclosure were added in a kinase buffer at the appropriate concentration and the reactions were incubated for 1 hour, at room temperature in the dark. • After 1 h EDTA was added to stop the kinase reaction, Eu-W1024-labeled anti-phosphoserine-CREB (Ser133) Antibody (anti-phosphoCREBtide specific antibody) was added to the reaction in LANCE Detection buffer. The mixture was allowed to incubate for 30 min to allow binding of the antibody to the phosphorylated site before the plate was read using a Tecan microplate reader
Kinase Assay Buffer—50 mM HEPES pH7.0.1 mM EGTA, 10 mM MgCl2, 0.01% BRU-35.
The inhibitory activity of each compound against PIM kinases was measured with the LANCE® Ultra Kinase Assays by ChemDiv, Inc. (San Diego, Calif.).

HepG2 = assay: CellTiter-Glo cancer cell growth inhibition, HepG2; format: cell-based, human; details: Homo sapiens, HepG2, 72 h
Text: (§4) The CellTiter-Glo® Luminescent Cell Viability Assay is a sensitive homogeneous method to determine the number of viable cells in culture, Detection is based on using the luciferase reaction to measure the amount of ATP from viable cells. The amount of ATP in cells correlates with cell viability. Within minutes after a loss of membrane integrity, cells lose the ability to synthesize ATP, and endogenous ATPases destroy any remaining ATP; thus the levels of ATP fall precipitously. The CellTiter-Glo® Reagent does three things upon addition to cells. It lyses cell membranes to release ATP; it inhibits endogenous ATPases, and it provides luciferin, luciferase and other reagents necessary to measure ATP using a bioluminescent reaction. The unique properties of a proprietary stable luciferase.
(§5) All assays were performed by Reaction Biology Corporation (Malvern, Pa.) or ChemDiv, Inc. (San Diego, Calif.). All cell lines were purchased from American Type Culture Collection (ATCC, Manassas, Va.), except Huh 7 (RIKEN, Toyo, Japan) and HepaRG (Life Technologies, Carlsbad, Calif.).
(§6) Stock solutions ([…]) were diluted with cell culture media to produce 500× serial dilutions and […] of final compound dilutions were added to cells in assay plates to screen a series of 10 doses starting at […]. Final DMSO concentration was 0.2%. Assay plates are centrifuged at 100 rpm, 1 minute and kept at 37° C., 5% CO2, humidified atmosphere. […] Luminescence intensity was measured for each well using the Tecan M 1000 microplate reader after 5 min of incubation with CellTiter-Glo Reagent. The number of viable cells in culture was determined based on quantitation of the ATP present in each culture well. […] The EC50 curves were plotted and […] values were calculated using the GraphPad Prism 4 program based on a sigmoidal dose-response equation.

Huh7 = assay: CellTiter-Glo cancer cell growth inhibition, Huh7; format: cell-based; details: Homo sapiens, Huh-7, 72 h
Text: as §4, §5, §6

SMILES	IC50 (PIM1) [nM]	IC50 (PIM2)	Selectivity among PIM1-3 (IC50 plots, FIGS. 1A-1C) (PIM3 [1])	IC50 (PIM3 [1]) [nM]	IC50 (PIM3 [2]; ATP 1 mM) [nM]	EC50 (HepG2) [nM]	EC50 (Huh7) [nM]	IC50 (PIM3 [2]; ATP 0.1 mM) [nM]
O=C1NC(=O)c2c1c1c3cc(F)c(O)cc3[nH]c1c1c2c2ccccc2n1CCN1CCOCC1 [Compound 18, 3-fluoro-2-hydroxy-12-(2-morpholin-4-ylethyl)-12,13-dihydro-5H-indolo[2,3-a]pyrrolo[3,4-c]carbazole-5,7(6H)-dione]	1.8	7 nM and 7.4 nM	PIM3 selectivity	0.25	9.5	76	41	
O=C1NC(=O)c2c1c1c3ccccc3[nH]c1c1c2c2cc(F)c(O)cc2n1CCN1CCOCC1 [Compound 19, 3-fluoro-2-hydroxy-13-(2-morpholin-4-ylethyl)-12,13-dihydro-5H-indolo[2,3-a]pyrrolo[3,4-c]carbazole-5,7(6H)-dione]	0.98	6.7 nM		0.2	4.3	34	80	1
